From US9157062B2, “Compositions and methods for promoting the generation of PDX1+ pancreatic cells” (President and Fellows of Harvard College, priority 2008, dated 2015)

Tests used:
Format in all cases: cell-based, human
[1] = tested on: HUES8-derived population; assay: In vitro differentiation into pancreatic lineages with bFGF and nicotinamide
Experimental: For growth factor-induced differentiation, the ILV-treated populations were cultured in DMEM/F12 supplemented with 1×N2 (Invitrogen), 2 mg/ml albumin fraction V (Invitrogen), and 10 ng/ml bFGF (Invitrogen) for the first 4 days. 10 mM nicotinamide (Sigma) was then added and maintained for additional 8 days, changing the media every 3 days.
(§1) Cells were fixed with 10% formalin solution (Sigma) for 20 min at room temperature. Immunostaining was carried out with standard protocols. The following primary antibodies were used: goat anti-Pdx1 (1:500; R&D system); rabbit anti-FOXA2 (1:500; Upstate); rabbit anti-HNF6 (1:200; Santa Cruz Biotech); guinea pig anti-insulin (1:1000; Dako); rabbit anti-c-peptide (1:500; Linco); rabbit anti-amylase (1:200, Sigma); goat anti-HNF1β (1:100, Santa Cruz Biotech); and biotinylated DBA (1:400; Vector Lab). Alexa-488-, Alexa-555, and Alexa-647-conjugated donkey antibodies against mouse, rabbit, guinea pig and goat, and Pacific Blue conjugate-streptavidin (Invitrogen) were used at 1:300 dilution.
In mouse embryonic development, Pdx1^+ pancreatic progenitors contribute to exocrine, endocrine and duct cells (Gu et al., 2003). The developmental potential of Pdx1^+ cells produced by ILV treatment was tested in two assays. First, following published protocols for in vitro differentiation (Jiang et al., 2007), cells were cultured with bFGF and nicotinamide for an additional 12 days. Using this in vitro differentiation assay, four different induced cell types were tested, including HUES8-derived population before ILV treatment (no treatment), the HUES8-derived population after 4 day treatment with DMSO, 300 nM ILV or 300 nM ILV+50 ng/ml FGF10, respectively. After 12 days culture with bFGF and nicotinamide, these four populations of cells were stained with the antibodies against insulin, c-peptide, amylase or DBA (a duct marker).

[2] = tested on: HUES8-derived population; assay: Pancreatic lineage markers in ILV-treated population (immunocytochemistry, qRT-PCR)
Experimental: Total RNAs were extracted with the RNeasy Mini Kit (Qiagen) and reverse-transcribed using SuperScript III RT-PCR system (Invitrogen) according to the manufacturer's protocol. One microliter of cDNA sample was PCR amplified with QuantiFast SYBR Green PCR Kit (Qiagen) and analyzed with DNA engine Opticon2 (MJ Research).
as §1
To further characterize the cells induced by ILV, beyond Pdx1^+ expression, multiple pancreatic lineage markers were examined by immunocytochemistry and qRT-PCR. More than 96% of the Pdx1^+ cells following ILV treatment show significant expression of other pancreatic progenitor markers, including FOXA2 and HNF6 (FIG. 4a). After ILV treatment, Pdx1, HNF6, Ptfla, Sox9, FOXA2 mRNAs level increase (FIG. 4b).

[3] = tested on: HUES8-derived population; assay: Ki67 staining for proliferation of Pdx1+ cells; conditions: 300 nM ILV, 4 days
Experimental: as §1
The results provided above are consistent with (1) ILV promotion of the proliferation or replication of the few pancreatic progenitors present in the starting population and with (2) differentiation induction of definitive endoderm by the compound. To distinguish between these possibilities, a HUES8-derived population was treated with 300 nM ILV for 4 days and analyzed for proliferation by staining with the antibody against Ki67 (marker for proliferating cells).

[4] = tested on: HUES8-derived population (Pdx1+ cells); assay: Pdx1 antibody staining of treated HUES8-derived population; conditions: HUES8-derived population, 4 days; 300 nM ILV and/or 50 ng/ml FGF10
Experimental: To generate a starting population, HUES cells were cultured on MEF feeder cells until 80-90% confluent, then treated with 25 ng/ml Wnt3a (R&D systems)+100 ng/ml Activin A (R&D systems) in advanced RPMI (A-RPMI, Invitrogen) supplemented with 1×L-Glu and 1×PS for 1 day, and then 100 ng/ml Activin A in A-RPMI supplemented with 1×L-Glu, 1×PS and 0.2% FBS (Invitrogen). Two days later, the media was changed to 50 ng/ml FGF10 (R&D systems)+0.25 μM KAAD-CYC (Calbiochem) in A-RPMI supplemented with 1×L-Glu, 1×PS and 2% FBS and maintained for additional 2 days. Cells were then transferred to 50 ng/ml FGF10+0.25 μM KAAD-CYC+2 μM RA (Sigma) in DMEM supplemented with 1×L-Glu, 1×PS, 1×B27 (Invitrogen) and cultured for an additional 4 days. ILV was obtained from Axxora, KAAD-CYC, TPB, PMA, BISI, Gö 6983, U0126 and PD98059 were obtained from Calbiochem and RA were obtained from Sigma.
as §1
To determine whether PKC signaling is being activated in HUES-derived cells, HUES8-derived definitive endoderm population was treated with two PKC agonists, TPB ((2S,5S)-(E,E)-8-(5-(4-(trifluoromethyl)phenyl)-2,4-pentadienoylamino)benzolactam) and PMA (phorbol-12-myristate-13-acetate), in the absence of ILV. […] Furthermore, HUES8-derived population was treated with two PKC antagonists, BISI (Bisindolylmaleimide I) and Gö 6983, in the presence of ILV.
Experiments were performed to monitor downstream signaling by PKC. Since ERK signaling has been reported to be regulated by PKC (Ueda et al., 1996), the activity of ERK signaling was examined with Western blotting to detect the phosphorylation of ERK1/2 at Thr-202/Tyr-204.

[5] = tested on: HUES8-derived definitive endoderm population; assay: Pancreatic specification of the hESC-derived definitive endoderm population (Pdx1+ cells); conditions: definitive endoderm population with 70% Sox17+ cells, 4 days; 300 nM ILV, 50 ng/ml FGF10
Experimental: FIG. 6c are results showing that ILV directs the specification of definitive endoderm population toward pancreatic lineage (definitive endoderm population was derived from HUES8 after 1 day treatment with 25 ng/ml Wnt3a and 100 ng/ml Activin A for 1 day and 100 ng/ml Activin A for additional 2 days; then, the definitive endoderm population was treated with 300 nM ILV or 300 nM ILV+50 ng/ml FGF10 for additional 4 days);
Secondly, ILV was examined on the definitive endoderm population containing 70% Sox17^+ cells derived from HUES8 by Wnt3a/Activin treatment (D'Amour et al., 2006). […] Thus, ILV functions by inducing pancreatic specification of hESC-derived definitive endoderm population.

[6] = 4 day treatment (300 nM ILV, 50 ng/ml FGF10), then 12 days bFGF and nicotinamide

## (−)-Indolactam V [ILV]
[1]; [6]
  DBA+ duct cells: 3.6±1.3%
  amylase+ exocrine cells: 22.7±5.3%
  insulin+ cells: 0.5±0.2%
[1]; compared to no treatment or DMSO, immunostaining and qRT-PCR
  contribution to somatostatin+ cells: stronger ability to contribute
[2]; 300 nM ILV, 4 days, qRT-PCR
  Pdx1, HNF6, Ptfla, Sox9, FOXA2 mRNAs level: increase
  endocrine progenitor markers Nkx2.2, Ngn3 and Nkx6.1: upregulated
[2]; after ILV treatment, immunocytochemistry
  share of Pdx1+ cells with significant expression of FOXA2 and HNF6: More than 96%
[3]
  Pdx1+ cells expressing Ki67: no Pdx1^+ cells expressing Ki67
[4]
  percentage of cells stained by Pdx1 antibody: 26.9±2.8%
[5]
  Pdx1+ cells: 21.5±2.4%
